The first assay deals with DLBCL. The assay can be described thus: SynergyScreen of Pegcrisantaspase or Oncaspar with standard of care agents. Format: cell-based. Conditions: agent combined with Pegcrisantaspase (FIG. 13A) or Oncaspar (FIG. 13B). The source says: (§1) The special volcano plot of FIG. 9 relates compound sensitivity (as measured by ^10logIC50) to the presence of cancer hotspot mutations. […] The hotspot mutations were derived from statistical analyses of the recurrence patterns of mutations and copy number alterations in patients through separate studies. Axes and statistical analyses are identical to the volcano plot of FIG. 8. The cutoff p-level for significance is 0.32. […] Effect20 For determination of the effect of the compound on the activity of other anti-cancer agents in SynergyScreen™ experiments, a low, fixed concentration is used, corresponding to the concentration at which cell growth is inhibited by 20%. This concentration is determined using the dose-response curves of the single compounds. The concentration is the value on the x-as, corresponding to 80% viability of untreated at the y-axis.
(§2) See the tables depicted in FIG. 13A-FIG. 13B. Grey shading indicates synergistic activity. Light grey shading indicates one experiment and dark grey indicates two experiments. […] Example 5: mPEG-r-crisantaspase conjugates (Pegcrisantaspases) was tested in combination with ABT-737 against HL-60 cell line.
`O=C(Cc1cccc(OC(F)(F)F)c1)Nc1ccc(CCCCc2nnc(NC(=O)Cc3ccccn3)s2)nn1` [CB-839]: the “effect in DLBCL when used with Pegcrisantaspase or Oncaspar” value (shortened to “effect in DLBCL when used”) is on record as “increased effect”.

Take `CC(C)C[C@H](NC(=O)[C@H](Cc1ccccc1)NC(=O)c1cnccn1)B(O)O` [bortezomib]: the “effect in DLBCL when used” value is on record as “increased effect”.

In the case of `CO[C@H]1C[C@@H]2CC[C@@H](C)[C@@](O)(O2)C(=O)C(=O)N2CCCC[C@H]2C(=O)O[C@H]([C@H](C)C[C@@H]2CC[C@@H](OCCO)[C@H](OC)C2)CC(=O)[C@H](C)/C=C(\C)[C@@H](O)[C@@H](OC)C(=O)[C@H](C)C[C@H](C)/C=C/C=C/C=C/1C` [everolimus], the “effect in DLBCL when used” value is on record as “increased effect”.

`CC[C@]1(O)C[C@H]2CN(CCc3c([nH]c4ccccc34)[C@@](C(=O)OC)(c3cc4c(cc3OC)N(C=O)[C@H]3[C@@](O)(C(=O)OC)[C@H](OC(C)=O)[C@]5(CC)C=CCN6CC[C@]43[C@@H]65)C2)C1` [vincristine]: the “effect in DLBCL when used” value was “increased effect”.

In the next assay the test system is AML. The description is as above. The class given is cell-based. As to conditions: agent combined with Pegcrisantaspase (FIG. 13A) or Oncaspar (FIG. 13B).
Text: as §1, §2
For `CC(C)C[C@H](NC(=O)[C@H](Cc1ccccc1)NC(=O)c1cnccn1)B(O)O` [bortezomib], the “effect in AML when used with Pegcrisantaspase or Oncaspar” value is “increased effect”.

As for `COc1cccc2c1C(=O)c1c(O)c3c(c(O)c1C2=O)C[C@@](O)(C(C)=O)C[C@@H]3O[C@H]1C[C@H](N)[C@H](O)[C@H](C)O1` [daunorubicin], the “effect in AML when used with Pegcrisantaspase or Oncaspar” value was “increased effect”.

The values are drawn from patent publication US20230173042A1, “METHODS OF TREATMENT WITH ASPARAGINASE” (JAZZ PHARMACEUTICALS IRELAND LTD., priority 2017, published 2023).
